Results as given in patent publication US9862748B2, “Peptide compounds and methods of production and use thereof” (priority 2012, dated 2018).
Read-outs that look alike come from different tables or passages of the source. Square brackets hold non-standard residues; d marks the D form. Peptide text beside a SMILES is read from it. AEEA = NCCOCCOCC(=O)O

Key:
[1] = system: P. aeruginosa (ATCC® 27853™); assay: Mouse model of Pseudomonas keratitis (CFU/eye); type: in vivo, Pseudomonas aeruginosa in C57/BL mice; details: 10 and 20 mg/ml groups together
Experimental: A circular wound (2 mm) was created on the mouse cornea by removing the epithelium and infecting the wound with 10^5 CFU of P. aeruginosa (ATCC® 27853™ (American Type Culture Collection, Manassas, Va.)). Infected wounds were treated with saline or saline containing indicated concentrations of peptide every 15 minutes for 2 hours, then every 30 minutes for 3 hours on the first day. Infected wounds were treated twice on the second day and once on the third day. Mice were killed at 48 hours post-infection, and the colony forming units per eye (CFU/eye) were quantified. The means are plotted and are representative of 5 to 9 mice per group. Mann Whitney test was performed for each group as compared to the saline control group.
For FIGS. 15-17, in vivo bactericidal activity of the peptides was also investigated using the standard Pseudomonas keratitis model in the mouse eye (FIGS. 15-17). Peptides 120-146QR-5RMP (SEQ ID NO: 32), 120-146WH (SEQ ID NO: 31), and 120-146WR (SEQ ID NO: 30) were applied topically at doses of 2, 5, 10, and 20 mg/ml to the wounded cornea that had been infected with 10^5 CFU of Pseudomonas aeruginosa. The efficacies of the peptides were compared to treatment with the vehicle control. Mice were euthanized at 48 hours post infection, and the CFU/eye were quantified.

[2] = system: Pseudomonas aeruginosa ATCC® 27853™; type: cell-based; set-up: Effects of Peptide Compounds on Pseudomonas aeruginosa ATCC ® 27853 ™: unit not given here; details: Table 6
Experimental: (§1) In vitro bactericidal activity: The three peptide compounds BCC01-5RMP (SEQ ID NO: 21), BCC02-5RMP (SEQ ID NO: 22), and BCC03-5RMP (SEQ ID NO: 23) were assayed for in vitro bactericidal activity against Pseudomonas aeruginosa, Escherichia coli, Salmonella typhimurium, and Acinetobacter baumannii. The starting inoculum for all experiments was 1×10^6 colony forming units (CFU)/ml. The CFU remaining at the end of 60 to 180 minute incubation was determined, and the data plotted as a log reduction in CFU/ml.
(§2) For FIGS. 10-13, in vitro bactericidal assays were performed using a starting inoculum of 1×10^6 CFU/ml of the bacterial suspension. The CFU remaining at the end of the 60-180 minute incubation was determined, and the data was plotted as log reduction in CFU/ml.
(§3) In particular, each of the test peptides (CAP37 peptides 120-146WR, 120-146WH, and 95-122 (SEQ ID NOs: 30, 31, and 26, respectively)) was used at 25, 12.5, 6.25, and 3.12 μM. Gentamicin was used at 4 μg/ml. 1×10^6/ml Acinetobacter baumannii ATCC® BAA-747™ or Pseudomonas aeruginosa ATCC® 27853™ (American Type Culture Collection, Manassas, Va.) were incubated with the peptides, negative buffer control (tryptone saline), and positive control gentamicin at pH 5.5 or 7.2. A 60 minute incubation was used for Acinetobacter baumannii ATCC® BAA-747™, while a 180 minute incubation was used for Pseudomonas aeruginosa ATCC® 27853™. 50 μl aliquots were plated out on agar plates and incubated overnight. Colony forming units were counted after overnight incubation and CFU/ml calculated.
For FIG. 14, 1×10^6/ml Pseudomonas aeruginosa ATCC® 27853™ were incubated with each of the test peptides (CAP37 peptides 120-146WR, 120-146WH, 120-146QR, 120-146QH, 120-146QR-5RMP, and 120-146QH-5RMP (SEQ ID NOs: 30, 31, 28, 29, 32, and 33, respectively)) at 150, 75, and 37.5 μg/ml, or negative buffer control (tryptone saline), for 180 minutes at pH 5.5. 50 μl aliquots were plated out on agar plates and incubated overnight. Colony forming units were counted after overnight incubation and CFU/ml calculated.

[3] = system: E. coli ATCC® strain 25922™; type: cell-based, Escherichia coli; set-up: unit not given here; details: Peptide Conc 1.56 μg/ml; Table 6
Experimental: as §1

[4] = system: Acinetobacter baumannii ATCC® BAA-747™; type: cell-based; details: starting inoculum 1×10^6 CFU/ml; 60 to 180 minute incubation
Experimental: as §1, §2, §3

Salmonella typhimurium = assay: In vitro bactericidal assay; type: cell-based
Experimental: as §1

Pseudomonas LPS = assay: LPS binding, Limulus Amebocyte Lysate (LAL) assay
Experimental: (§4) The well-characterized response of RAW264.7 macrophage cells was used to produce tumor necrosis-factor-alpha (TNF-α) in response to LPS to determine whether the peptides could dampen the release of this cytokine. […] Importantly, pre-treatment (3 hours prior to LPS addition) as well as post-treatment of the RAW264.7 cells (3 hours post LPS addition) with peptide dampened the cytokine release. […] The finding that the novel peptides bind and neutralize the effect of Pseudomonas LPS is of critical importance since this ensures that the novel therapeutic peptide compounds described herein will not only kill the bacteria, but will also neutralize the LPS endotoxin released by the bacteria which plays such an important role in the rapid progression of sepsis.
(§5) BCC01-5RMP (SEQ ID NO: 21), BCC02-5RMP (SEQ ID NO: 22), and BCC03-5RMP (SEQ ID NO: 23) were tested for their ability to bind lipopolysaccharide (LPS) using the limulus amebocyte lysate method (LAL). […] There was no statistical difference in their ability to bind LPS using the LAL technique. The ability of the peptides to neutralize LPS was assessed by determining their ability to attenuate the release of tumor necrosis factor-alpha (TNF-α) from LPS-stimulated RAW264.7 cells (a mouse macrophage cell line). […] No significant differences were observed between the three peptides to neutralize LPS as measured by cytokine release.

RAW264.7 cells = assay: LPS neutralization: TNF-α release from LPS-stimulated RAW264.7 cells; type: cell-based, mouse
Experimental: as §4, §5

Question: How did the “mice with no viable bacteria in the eye after treatment” value [1] turn out when `CC(C)C[C@H](NC(=O)[C@H](CCCNC(=N)N)NC(=O)CNC(=O)CNC(=O)[C@H](CO)NC(=O)[C@H](CCCNC(=N)N)NC(=O)[C@H](CCC(N)=O)NC(=O)[C@H](CO)NC(=O)CNC(=O)[C@H](Cc1c[nH]c2ccccc12)NC(=O)CNC(=O)[C@H](C)NC(=O)[C@@H](NC(=O)[C@H](CCC(N)=O)NC(=O)[C@H](CS)NC(=O)[C@H](CCCNC(=N)N)NC(=O)[C@@H](NC(=O)CNC(=O)[C@H](CCCNC(=N)N)NC(=O)[C@H](CCCNC(=N)N)NC(=O)[C@H](CCCNC(=N)N)NC(=O)[C@H](CCCNC(=N)N)NC(=O)COCCOCCNC(=O)COCCOCCN)[C@@H](C)O)C(C)C)C(=O)N[C@@H](CO)C(=O)N[C@@H](CCCNC(=N)N)C(=O)N[C@@H](Cc1ccccc1)C(=O)N1CCC[C@H]1C(=O)N[C@@H](CCCNC(=N)N)C(=O)N[C@@H](Cc1ccccc1)C(=O)N[C@H](C(=O)N[C@@H](CC(N)=O)C(=O)N[C@H](C(=O)N[C@@H](CCCNC(=N)N)C(=O)O)C(C)C)C(C)C` [120-146QR-5RMP] (H-[AEEA][AEEA]RRRRGTRCQVAGWGSQRSGGRLSRFPRFVNVR-OH; N-terminus and C-terminus assumed) was run?
Answer: Six of the 10 mice

Question: What does the source list for `CC[C@H](C)[C@H](NC(=O)[C@H](CC(C)C)NC(=O)[C@H](C)NC(=O)CNC(=O)CNC(=O)[C@H](CS)NC(=O)[C@H](Cc1ccccc1)NC(=O)[C@H](Cc1c[nH]cn1)NC(=O)[C@H](CCCNC(=N)N)NC(=O)CNC(=O)[C@H](CCC(N)=O)NC(=O)[C@H](CC(N)=O)NC(=O)[C@H](CCCNC(=N)N)NC(=O)[C@H](CCCNC(=N)N)NC(=O)[C@H](CCCNC(=N)N)NC(=O)[C@H](CCCNC(=N)N)NC(=O)COCCOCCNC(=O)COCCOCCN)C(=O)N[C@@H](Cc1c[nH]cn1)C(=O)N[C@@H](C)C(=O)N[C@@H](CCCNC(=N)N)C(=O)N[C@@H](Cc1ccccc1)C(=O)N[C@H](C(=O)N[C@@H](CCSC)C(=O)N[C@H](C(=O)N[C@@H](C)C(=O)N[C@@H](C)C(=O)N[C@@H](CO)C(=O)N[C@@H](CO)C(=O)N[C@@H](Cc1ccccc1)C(=O)N[C@@H](CCC(N)=O)C(=O)N[C@@H](CCCNC(=N)N)C(=O)O)[C@@H](C)O)C(C)C` [BCC03-5RMP] (H-[AEEA][AEEA]RRRRNQGRHFCGGALIHARFVMTAASSFQR-OH; N-terminus assumed)?
Answer: Effects of Peptide Compounds on Pseudomonas aeruginosa ATCC ® 27853 ™ ([2]; Peptide Conc 25 μg/ml): 100.0; Effects of Peptide Compounds on Pseudomonas aeruginosa ATCC ® 27853 ™ ([2]; Peptide Conc 50 μg/ml): 100.0; Effects of Peptide Compounds on Pseudomonas aeruginosa ATCC ® 27853 ™ ([2]; Peptide Conc 100 μg/ml): 100.0; Effects of Peptide Compounds on Pseudomonas aeruginosa ATCC ® 27853 ™ ([2]; Peptide Conc 200 μg/ml): 100.0; Effects of Peptide Compounds on Escherichia coli ATCC ® 25922 ™ [3]: 23.0; activity against Acinetobacter baumannii [4]: most active; activity against Salmonella typhimurium (Salmonella typhimurium): strong, but lesser activity; binding of Pseudomonas LPS (LAL) (Pseudomonas LPS): bound Pseudomonas LPS; release of TNF-α in response to Pseudomonas LPS (RAW264.7 cells): attenuate the release of TNF-α
